BindingDB's records for patent US20250382298 (Suzhou Genhouse Bio Co., 2025)

Target: T1, Kinesin-like protein KIF18A (Homo sapiens, UniProt Q8NI77)
T1 sequence (Q8NI77 whole entry): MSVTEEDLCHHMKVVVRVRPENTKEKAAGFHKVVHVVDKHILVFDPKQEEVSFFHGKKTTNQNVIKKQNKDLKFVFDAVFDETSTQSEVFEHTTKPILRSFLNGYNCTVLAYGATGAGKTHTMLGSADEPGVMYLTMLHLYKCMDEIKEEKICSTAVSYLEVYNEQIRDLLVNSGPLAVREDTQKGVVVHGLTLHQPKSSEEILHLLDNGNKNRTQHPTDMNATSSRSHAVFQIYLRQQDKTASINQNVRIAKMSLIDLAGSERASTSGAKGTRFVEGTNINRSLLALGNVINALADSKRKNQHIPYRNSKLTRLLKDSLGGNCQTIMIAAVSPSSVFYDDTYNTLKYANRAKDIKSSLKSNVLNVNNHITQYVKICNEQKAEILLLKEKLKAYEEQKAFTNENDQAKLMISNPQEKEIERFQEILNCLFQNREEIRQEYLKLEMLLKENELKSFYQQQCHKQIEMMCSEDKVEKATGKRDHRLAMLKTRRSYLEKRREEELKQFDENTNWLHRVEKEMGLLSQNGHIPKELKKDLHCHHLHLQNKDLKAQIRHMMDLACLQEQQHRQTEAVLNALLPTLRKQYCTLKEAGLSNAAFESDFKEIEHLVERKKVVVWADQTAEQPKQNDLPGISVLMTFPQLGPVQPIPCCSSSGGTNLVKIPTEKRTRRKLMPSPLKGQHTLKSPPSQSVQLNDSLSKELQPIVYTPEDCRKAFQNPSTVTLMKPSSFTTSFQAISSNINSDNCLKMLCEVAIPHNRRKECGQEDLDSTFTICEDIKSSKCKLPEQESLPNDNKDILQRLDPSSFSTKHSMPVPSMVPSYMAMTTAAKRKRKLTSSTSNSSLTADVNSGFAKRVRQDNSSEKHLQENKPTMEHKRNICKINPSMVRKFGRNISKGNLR
Assay: Inhibitory Activity Assay
Description: In this experiment, an ADP-Glo kit was used to detect the inhibitory activity of the compounds against KIF18A. Each compound was prepared into a 10 mM stock solution with DMSO, which was then diluted at 1:5 to obtain 9 gradients with the initial final concentration set at 10 μM. Meanwhile, a control group and a blank group were also set up. The reaction buffer consisted of 15 mM Tris (pH 7.5), 10 mM MgCl2, and 0.01% Pluronic F-68. […] Finally, the ADP-Glo reagent was added to detect the luminescence intensity, where the luminescence intensity is directly proportional to the ADP content. Inhibition rate (%)=(1−Sample signal)/DMSO signal×100. Sample signal is the value of the compound group, and DMSO signal is the value of the DMSO control group. Then, the inhibition rate at each concentration was calculated, and the IC50 was determined by fitting using the GraphPadPrism 7.0 software.

Row | Compound | IC50 [µM]
1 | O=C(Nc1cc2cccnc2c(N2CCC(F)(F)CC2)n1)c1ccc(NS(=O)(=O)CCO)cc1N1CCC2(CC1)CC2 [US20250382298, Compound 21] | 0.0107
2 | O=C(Nc1cn2ccnc2c(N2CCC3(CC2)CC3)n1)c1ccc(NS(=O)(=O)CCO)cc1N1CCC2(CC1)CC2 [US20250382298, Compound 31] | 0.0553
3 | CS(=O)(=O)Nc1ccc(C(=O)Nc2cc3cccnc3c(N3CCC(F)(F)CC3)n2)c(N2CCC3(CC2)CC3)c1 [US20250382298, Compound 32] | 0.117
4 | O=C(Nc1cn2c(F)cnc2c(N2CCC(F)(F)CC2)n1)c1ccc(NS(=O)(=O)CCO)cc1N1CCC2(CC1)CC2 [US20250382298, Compound 34] | 0.0443
5 | O=C(Nc1cn2c(F)cnc2c(N2CCC(F)(F)CC2)n1)c1ccc(NS(=O)(=O)CCO)cc1N1CC2CCC(C2)C1 [US20250382298, Compound 51] | 0.01

Further compounds by falling IC50, results first:

Row | IC50 [µM] | Compound
6 | 0.134 | CS(=O)(=O)Nc1ccc(C(=O)Nc2cc3nccnc3c(N3CCC(F)(F)CC3)n2)c(N2CC3CCC(C3)C2)c1 [US20250382298, Compound 72]
7 | 0.111 | CS(=O)(=O)Nc1ccc(C(=O)Nc2cc3cccnc3c(N3CCC(F)(F)CC3)n2)c(N2CC3CCC(C3)C2)c1 [US20250382298, Compound 33]
8 | 0.0322 | O=C(Nc1cc2nccnc2c(N2CCC(F)(F)CC2)n1)c1ccc(NS(=O)(=O)CCO)cc1N1CCC2(CC1)CC2 [US20250382298, Compound 39]
9 | 0.0268 | CS(=O)(=O)Nc1ccc(C(=O)Nc2cn3ccnc3c(N3CCC(F)(F)CC3)n2)c(N2CC3CCC(C3)C2)c1 [US20250382298, Compound 19]
